Reference: PubChem BioAssay AID463136 (University of Pittsburgh Molecular Library Screening Center, 2010)
Records with an inconclusive call do not appear. Active and inactive are the calls of the source. No rule for the calls is given here.

Tests used:
[1] = blockers of dynein-driven microtubule transport – imaging, high-content imaging, dose response (AID 463136); details: HCS imaging, dynein-mediated cargo transport inhibition; inhibition at max concentration; at 50 µM; stronger effect = higher value;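 also: mouse mammary adenocarcinoma 3617.4 cells expressing GFP-tagged rat glucocorticoid receptor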; as to inhibition: reference of the scale not given here
[2] = test system: HCS imaging, dynein-mediated cargo transport inhibition; test: as above

Compound | inhibition [1] | IC50 [2]
COC/C=C/C1=CC2=CC(=O)C(C)(OC(=O)c3cnc4ccccc4n3)C(=O)C2=CN1Cc1ccc(OC)cc1 (configuration not stated) | 89.5% | 15 µM
CCCCNc1ccc2c3c(cccc13)C(=O)N(CCCC)C2=O | 13.5% | > 50 µM (inactive)
CCOC(=O)C(=Cc1ccc(OCc2ccc([N+](=O)[O-])cc2)c(OC)c1)C(=O)OCC | 2.92% | > 50 µM (inactive)
Clc1ncnc2scc(-c3ccc(Br)cc3)c12 | 85.1% | 19.9 µM
Cc1ccc(C2=NOC(=O)/C2=C\C=C\c2ccccc2)cc1 | 71% | 36.6 µM
O=C(NCc1cccnc1)/C(=C/c1ccc(-c2ccc(Cl)cc2)o1)S(=O)(=O)c1ccccc1 | 59.1% | 34.3 µM
O=C1C=CC(O)(c2cc(=O)c3c(O)cc(O)cc3o2)C=C1 | 86.7% | 5.9 µM
Cc1cc(C(=O)CCl)c(C)n1Cc1ccco1 | 85.7% | 13.5 µM
Cc1cc(C)nc(S/C=C/C(=O)c2ccccc2F)n1 | 83.3% | 19.3 µM
Nc1cccc2c1C(=O)N(C(=O)/C=C/c1ccc(F)cc1)C2=O | 37.6% | > 50 µM (inactive)
Cc1c(N=C2C=CC(=O)c3ccccc32)c(=O)n(-c2ccccc2)n1C | 76.4% | 39.6 µM
CCSc1nnc(-c2sc3nnc(-c4ccccc4)c(-c4ccccc4)c3c2N)o1 | 134% | 31.3 µM
O=c1cc(C(F)(F)F)c2cc3c4c(c2o1)CCCN4CCC3 | 99.6% | 5.51 µM
CCOc1ccccc1N1C(=O)CC(Sc2n[nH]c(-c3ccccc3)n2)C1=O (configuration not stated) | 13.5% | > 50 µM (inactive)
CC(=O)N1/C(=C/c2ccc(N(C)C)cc2)C(=O)c2ccccc21 | 78.9% | 29.9 µM
O=C(OCn1ncc(Br)c(Br)c1=O)c1ccc(F)cc1 | 55% | 7.52 µM

Compound | inhibition [1] | IC50 [2]
Cc1ccc(N2C(=O)NC(=O)/C(=C\C=C\c3ccco3)C2=O)cc1 | 108% | 27.7 µM
Cc1ccc(NC(=O)C(=Cc2ccc(C(=O)O)cc2)C(=O)Nc2ccc(C)cc2C)c(C)c1 | 78% | 11.1 µM
COc1cccc(N(C(=O)CCl)C(C(=O)NCCc2ccccc2)c2cccs2)c1 (configuration not stated) | 85.4% | 27.1 µM
N/C(=C\C(=O)c1cc(Cl)ccc1O)C(Cl)(Cl)Cl | 76.1% | 33 µM
O=C(CCl)Nc1cccc(Oc2ccccc2)c1 | 56.5% | 38.8 µM
O=C(NCc1cccnc1)/C(=C\c1ccc(-c2ccc(Br)cc2)o1)S(=O)(=O)c1ccccc1 | 55.1% | 39.4 µM
Cn1cc(C(=O)CCl)c2ccccc21 | 75% | 22.5 µM
O=[N+]([O-])c1c(NCCCO)cc(Sc2nc3ccccc3s2)c2nonc12 | -7.73% | > 50 µM (inactive)
CCOc1ccc2noc3c2c1C(=O)c1ccccc1-3 | 99.2% | 11 µM
Cc1ccc(C(=O)OCn2ncc(Cl)c(Cl)c2=O)cc1 | 76.2% | 18.9 µM
COC(=O)c1cc(=O)n(Cc2ccco2)c(=Nc2ccc(F)c(Cl)c2)s1 | 31.4% | > 50 µM (inactive)
Nc1c(C(=O)c2cccs2)sc2nsc(SCCN3CCCCC3)c12 | 11.4% | > 50 µM (inactive)
COc1ccc(-c2nnc(Sc3nc4ccccc4o3)c3ccccc23)cc1 | 88.8% | 27.2 µM
CC(=O)OCCCNc1cc(Sc2ccc(Cl)cc2)c2nonc2c1[N+](=O)[O-] | 60.4% | 41 µM
O=[N+]([O-])c1ccc(C2=NN(c3ccccc3)C(c3ccco3)C2)cc1 (configuration not stated) |  | 32.3 µM
Cc1cccc2cc3c(N)c(C(=O)N4CCc5ccccc54)sc3nc12 |  | 5.15 µM
